Source: patent publication US8048454B2, “Methods and compositions related to regulation of cytokine production by glycogen synthase kinase 3 (GSK-3)” (priority 2004, dated 2011)
Entries after “also recorded” stand apart in the source; their conditions may differ.

Tests used:
human monocytes = assay: Cytokine production by E. coli LPS-stimulated monocytes (ELISA); type: cell-based
Protocol: FIG. 2 The ability of the PI3K pathway to differentially modulate the levels of pro- and anti-inflammatory cytokines is mediated by inhibition of GSK-3. Human monocytes were pre-incubated with medium only, 10 μM SB216763, 10 mM LiCl, 200 nM Azakenpaullone, BIO (50 nM), 1 μM Akt-i, or 20 μM LY294002 for 1 h and then stimulated with 1 μg/ml of E. coli LPS for 20 h. Cell-free supernatants were collected and assessed for (A, C) IL-10, (B, D) IL-12 p40, (E) TNF-α, or (F) IL-6 production by ELISA. * and *** indicates significant differences (P<0.05 and P<0.001, respectively) compared to E. coli LPS stimulated cultures. Results represent the mean±SD of 5 separate experiments.
(A) Monocytes were pre-treated for 96 h with medium, siRNA targeting GSK-3β, or control siRNA and assayed by Western blot for the levels of total GSK-3β and total p38. (B, C) Monocytes were pre-treated with medium only, siRNA control, or siRNA targeting GSK-3β for 96 h, stimulated with E. coli LPS for 20 h, and cell-free supernatants assayed by ELISA for the levels of (B) IL-10 and (C) IL-12 p40. * indicates significant differences (P<0.05) compared to LPS stimulated cultures. Results represent the mean±SD of 3 separate experiments.
(§1) Human monocytes were pre-treated with medium only or 10 μM of SB216763 and then stimulated for the indicated time points with 1 μg/ml of E. coli LPS. The ability of E. coli LPS in the presence or absence of SB216763 to mediate the degradation and re-synthesis of (A) IκB-α and the phosphorylation of (B) NF-κB p65 (ser 276 or ser 536) were assessed by Western blot. […] The interaction of CBP with (F) NF-κB p65 and (G) CREB after treatment of cells with SB216763 (10 μM) were assessed by immunoprecipitation of CBP and probed for (F) NF-κB or (G) CREB levels by immunoblot. (H) To determine the functional effect of GSK-3 regulating CREB activity in LPS-stimulated monocytes, cells were pre-treated for 96 h with medium only, siRNA targeting CREB, or control siRNA and assayed by Western blot for the levels of CREB and total p38. (I, J) Monocytes pre-treated with medium only, siRNA control, or siRNA targeting CREB for 96 h were stimulated with E. coli LPS for 20 h and cell-free supernatants assayed by ELISA for the levels of (I) IL-10 and (J) IL-12 p40. To ensure equal protein loading, immunoblots were striped and re-probed with total p38 (A, B, H) or total CBP (F, G). […]
Human or mouse IL-1β, IL-10, IL-12 p40, and IFN-γ levels in the plasma of mice or cell-culture supernatants were determined by using enzyme-linked immunosorbent assay (ELISA) kits from R&D systems or Ebioscience according to manufacturer's instructions. […]

NF-κB = assay: IκB-α degradation and NF-κB p65 phosphorylation, Western blot, LPS-stimulated monocytes; type: cell-based, human; details: 10 μM SB216763, 1 μg/ml E. coli LPS
Protocol: Human monocytes were pre-treated with medium only or 10 μM of SB216763 and then stimulated for the indicated time points with 1 μg/ml of E. coli LPS. The ability of E. coli LPS in the presence or absence of SB216763 to mediate the degradation and re-synthesis of (A) IκB-α and the phosphorylation of (B) NF-κB p65 (ser 276 or ser 536) were assessed by Western blot. […] The interaction of CBP with (F) NF-κB p65 and (G) CREB after treatment of cells with SB216763 (10 μM) were assessed by immunoprecipitation of CBP and probed for (F) NF-κB or (G) CREB levels by immunoblot. […]
To investigate the underlying cellular mechanism responsible for the ability of GSK-3 inhibition to suppress the production of pro-inflammatory cytokines while concurrently augmenting the production of the anti-inflammatory cytokine IL-10, the ability of how GSK-3 influenced the activation of downstream transcription factors involved in the inflammatory response was assessed. […] Since GSK-3 can mediate the phosphorylation of the p65 subunit of NF-κB, it was next determined if GSK-3 inhibition was exerting an effect on the phosphorylation status of the p65 subunit of NF-κB. […] Therefore, the nuclear levels of the NF-κB subunits p50 and p65 were analyzed in the presence or absence of the GSK-3 inhibitor SB216763 (FIG. 9C, D). […]

[1] = tested on: NF-κB p50, NF-κB p65, CREB; assay: Nuclear NF-κB p50, NF-κB p65 and CREB binding activity (TransAM kit); type: cell-based, human; details: SB216763 pre-treatment 1 h; LPS; vs LPS alone
Protocol: Human monocytes were pre-treated with medium only or 10 μM of SB216763 and then stimulated for the indicated time points with 1 μg/ml of E. coli LPS. The ability of E. coli LPS in the presence or absence of SB216763 to mediate the degradation and re-synthesis of (A) IκB-α and the phosphorylation of (B) NF-κB p65 (ser 276 or ser 536) were assessed by Western blot. […] The interaction of CBP with (F) NF-κB p65 and (G) CREB after treatment of cells with SB216763 (10 μM) were assessed by immunoprecipitation of CBP and probed for (F) NF-κB or (G) CREB levels by immunoblot. (H) To determine the functional effect of GSK-3 regulating CREB activity in LPS-stimulated monocytes, cells were pre-treated for 96 h with medium only, siRNA targeting CREB, or control siRNA and assayed by Western blot for the levels of CREB and total p38. (I, J) Monocytes pre-treated with medium only, siRNA control, or siRNA targeting CREB for 96 h were stimulated with E. coli LPS for 20 h and cell-free supernatants assayed by ELISA for the levels of (I) IL-10 and (J) IL-12 p40. To ensure equal protein loading, immunoblots were striped and re-probed with total p38 (A, B, H) or total CBP (F, G). For nuclear extract analysis of (C) NF-κB p65, (D) NF-κB p50, and (E) CREB, optical density values were normalized by loading a standardized amount of protein, as indicated in the figure. * indicates statistical significance at P<0.05. For A, B, E, F, G, H, and I, results are representative of 3 separate experiments. For C and D, results represent the mean±SD of 3 separate experiments.
Human monocytes in 24-well polystyrene tissue culture plates were pretreated for 1 h with SB216763 or 0.01% DMSO and then incubated with medium alone or LPS for the indicated time points. Cells were collected, washed two times in PBS, and then assayed for activity using the TransAM kit specific for the given transcription factor (Active Motif, Carlsbad, Calif.). […]

CBP = assay: Co-immunoprecipitation of CBP with NF-κB p65 and CREB; type: cell-based, human; details: SB216763 10 μM; LPS-stimulated monocytes
Protocol: as §1, with “p38.” for “p38. (I, J) Monocytes pre-treated with medium only, siRNA control, or siRNA targeting CREB for 96 h were stimulated with E. coli LPS for 20 h and cell-free supernatants assayed by ELISA for the levels of (I) IL-10 and (J) IL-12 p40. To ensure equal protein loading, immunoblots were striped and re-probed with total p38 (A, B, H) or total CBP (F, G).”
Moreover, it has been shown that GSK-3 can negatively regulate the activation and nuclear binding properties of CREB. Therefore, it was next determined how GSK-3 inhibition was regulating the ability of nuclear CREB (ser133) to bind its consensus sequence (FIG. 9E). […] Since the levels of CREB binding activity were augmented by GSK-3 inhibition, it was determined if GSK-3 inhibition was affecting the ability of CREB (ser133) and NF-κ p65 (ser276) to associate with CBP by co-immunoprecipitation (FIG. 9F, G).

C57BL/6 mice [2] = assay: Endotoxin shock model, survival after LD100 of LPS; type: in vivo, mouse
Protocol: Mice (sham-injected and LPS groups) were pre-treated with i.p. injection of 1 ml PBS containing 0.01% DMSO (vehicle control). SB216763-treated mice were administered 1 ml of PBS containing 30 μM of SB216763. After 2 h, mice pre-treated with SB216763 (denoted LPS+SB216763) or vehicle (denoted LPS group) were given 150 μg of LPS by i.p., injection. ** and *** indicate statistically significant differences at P<0.01 and P<0.001, respectively, as compared to LPS-treated group. Results represent the mean of 30 mice/group.
(§2) C57BL/6 mice were bred and maintained within the pathogen-free animal facility at UAB. Experimental endotoxic shock was induced in age- and sex-matched C57BL/6 mice (18 to 23 g) by intraperitoneal injection of 150 μg of LPS in PBS containing 0.1% DMSO. Mice pre-treated with the GSK-3 inhibitor SB216763 received 1 ml of PBS containing 30 μM of SB216763 (DMSO was at 0.01%) by i.p. injection. LPS-control and sham-injected mice were pre-treated (i.p. injection) with 1 ml of PBS containing 0.1% DMSO. Mice given the GSK-3 inhibitor SB216763 after LPS challenge received 1 ml of PBS containing 30 μM of SB216763 (DMSO was at 0.01%) by i.p. injection. LPS-control and sham-injected mice were administered (i.p.) 1 ml of PBS containing 0.01% DMSO. At 4 h after injection, blood from all groups of mice was obtained by retro-orbital plexus bleeding.
Male C57BL/6 mice (8 to 12 weeks of age; 18 to 23 g) were injected via the intraperitoneal route with an LD100 ([…]) of E. coli K235 LPS in 200 µl of PBS containing 0.1% DMSO. Mice were monitored over a 10 day period for survivability.

C57BL/6 mice [3] = assay: In vivo cytokine production in LPS-challenged mice (plasma ELISA); parameters: species or system mouse; details: SB216763 2 h before 150 μg LPS i.p.
Protocol: SB216763-treated mice were given 1 ml of PBS containing 30 μM of SB216763. Sham-injected and LPS groups were given 1 ml of PBS containing vehicle (0.01% DMSO). After 2 h, mice pre-treated with SB216763 (denoted LPS+SB216763) or vehicle (denoted LPS group) were given 150 μg of LPS by i.p., injection. *** indicates statistically significant differences at P<0.001, as compared to LPS-treated group. Results represent the mean±SD of 10 mice/group.
as §2
Human or mouse IL-1β, IL-10, IL-12 p40, and IFN-γ levels in the plasma of mice or cell-culture supernatants were determined by using enzyme-linked immunosorbent assay (ELISA) kits from R&D systems or Ebioscience according to manufacturer's instructions.

human CD4+ T cells = assay: Cytokine production by anti-CD3 stimulated purified CD4+ T cells (ELISA); type: cell-based; details: plate-bound anti-CD3 10 μg/ml, 72 h
Protocol: Supernatants were analyzed for […] (IFN-γ) and Th2- (IL-10) type cytokines by ELISA. […] Thus, inhibition of GSK-3 at the T cell level also suppresses inflammatory cytokines while increasing anti-inflammatory cytokine production. Moreover, inhibition of GSK-3 can enhance Th2-type immune responses while suppressing Th1-type responses.

SMILES: Cn1cc(C2=C(c3ccc(Cl)cc3Cl)C(=O)NC2=O)c2ccccc21 [SB216763]
- IL-10 levels compared to E. coli LPS-treated monocytes (in words) (human monocytes; inhibitor pre-incubation 1 h, 1 μg/ml E. coli LPS 20 h): approximate three-fold increase
- reduction in IL-12 p40 levels (human monocytes; inhibitor pre-incubation 1 h, 1 μg/ml E. coli LPS 20 h, vs LPS alone): ~80%
- level of IL-12 p40 in cultures pre-treated with siRNA against CREB (in words) (human monocytes; siRNA against CREB 96 h plus SB216763, LPS): did not appear to be altered
- IL-10 levels in cells pretreated with siRNA targeting CREB (in words) (human monocytes; siRNA targeting CREB 96 h plus SB216763, LPS, vs LPS stimulated controls): did not exhibit any discernible increase
- rate or extent of degradation or re-synthesis of IκB-α protein (NF-κB): failed to alter
- level and duration of p65 phosphorylation (ser276 or ser536) (NF-κB; vs LPS alone): Neither the level nor duration
- DNA-binding properties of CREB [1]: significant increase
- nuclear levels of NF-κB p50 able to bind its consensus sequence [1]: did not appear to be influenced
- nuclear levels of NF-κB p65 able to bind its consensus sequence [1]: did not appear to be influenced
- levels of CREB bound to CBP (CBP): potently augmented
- levels of p65 associated with CBP (CBP): pronounced decrease
- LPS (endotoxin) lethality (in words) (C57BL/6 mice [2]; given 2 h before or 2 h after LD100 of LPS): mediates protection; also recorded: severe attenuation
- mice survived (C57BL/6 mice [2]; given 2 hours after LD100 of LPS, 1 ml PBS with 30 μM i.p., 0% in control-treated mice): approximately 55%
- mice protected from death (C57BL/6 mice [2]; given 2 hours before LD100 of LPS, 1 ml PBS with 30 μM i.p., 0% in control-treated mice): greater than 70%
- late deaths among survivors (C57BL/6 mice [2]; monitored over a 10-day period, both treatment groups): no late deaths
- reduction of systemic levels of several pro-inflammatory cytokines (C57BL/6 mice [3]; IL-1β, IL-12 p40, IFN-γ, vs LPS-treated controls): more than 50%
- in vivo (systemic) levels of IL-1β, IL-12 and IFN-γ (in words) (C57BL/6 mice [3]): suppresses; also recorded: profound decrease
- in vivo levels of IL-10 (in words) (C57BL/6 mice [3]): enhanced
- increase of in vivo production of IL-10 (C57BL/6 mice [3]; vs LPS-treated controls): more than 2 fold
- levels of IL-10 (human CD4+ T cells): significantly enhanced
- production of IFN-γ (human CD4+ T cells): suppress
